Source: US20040204375A1, “Gene delivery compounds” (priority 2001, published 2004)

How the values were obtained:
[1] = tested on: HT29 cells; experiment: Screening assay for gene transfer activators: adenovirus luciferase or β-galactosidase constructs on confluent cells with test compound; format: cell-based, human; parameters: key to Activity (gene transfer activator): +++ = more active; ++ = active; + = less active; conditions: for Activity (gene transfer activator): gene transfer in presence vs absence of test compound
Protocol: A gene transfer activating compound is identified by an assay which determines whether gene transfer occurs to a greater extent in the presence of a test compound than in the absence. For example, confluent cells plated in multi-well cell culture units are exposed to adenovirus luciferase or β-galactosidase constructs in the presence of the test compound. The test compound is administered to cells before, after or concurrently with the adenovirus. The extent of gene transfer is measured by visual inspection or quantitative measurement of luciferase or β-galactosidase in the presence and absence of the test compound.
HT29 cells are grown in 96-well plates. The cells are seeded at near confluency, about 300,000 cells per well, and infected with adenovirus 3-4 days later. […] For screening purposes, cells are grown on plastic. […] The activity of candidate compounds is also confirmed using polarized monolayers grown on filters. Once confluent, HT29 cells are very difficult to transduce with adenoviral constructs. Fewer than 1 in 100 cells express adenoviral transgenes at multiplicity of infection (MOI) of approximately 50. A replication deficient adenovirus encoding firefly luciferase or the E. coli LacZ gene (β-galactosidase) at an MOI of 50 for each well of cells in low serum medium is applied for 4 hours at 37° C. Test drugs are incubated along with the virus. Forty-eight hours later, the cells are assayed for β-galactosidase or luciferase by standard techniques. For example, β-galactosidase is assayed by incubating cells with a β-galactosidase substrate such as 1 mg/ml X-gal 5-bromo-4-chloro-3-indolyl B-D-galactopyranoside (X-gal), overnight at 37° C. When X-gal is cleaved by β-galactosidase, a bright blue precipitate is formed. The intensity of the blue color can be estimated visually or measured by optical densitometry to evaluate the efficiency of adenoviral transduction. Luciferase is assayed using a commercially available kit (Promega) which allows quantitative measurements of adenoviral gene transfer.

[2] = tested on: HT29 cells; experiment: Adenoviral LacZ gene transfer to confluent HT29 cells, β-galactosidase assay (Example 2); format: cell-based, human; conditions: for activation of adenovirus gene transfer: HT29 cells, LacZ adenovirus MOI 0.1-10, 4 hours, assay 48 hours later
Protocol: HT29 or HeLa cells are grown in 96-well plates. The HT29 cells are seeded at near confluency, about 300,000 cells per well, and infected with adenovirus 3-4 days later. Confluent HeLa cells are used as a positive control. […] A replication deficient adenovirus encoding the E. coli LacZ gene is applied at an MOI of 0.1-10 to wells of cells in low serum medium for 4 hours at 37° C. Gene transfer activating compounds are incubated along with the virus at concentrations of 10 micromolar or 100 micromolar. A set of cells is incubated with virus but no gene transfer activating compound. Forty-eight hours later, the cells are assayed for β-galactosidase by standard techniques. […] FIGS. 2 and 6 illustrate the results using compound 6975 and 8496 respectively.

[3] = tested on: IB3 cystic fibrosis airway epithelial cells; experiment: Adenoviral luciferase gene transfer to IB3 cells (Example 3); format: cell-based; conditions: 100 micromolar compound, MOI 5 or 10, FIG. 3
Protocol: IB3 cystic fibrosis airway epithelial cells are grown in 96-well plates. The cells are seeded at near confluency, about 300,000 cells per well, and infected with adenovirus 3-4 days later. A replication deficient adenovirus encoding luciferase is applied at an MOI of 5 or 10 to wells of cells in low serum medium for 4 hours at 37° C. Compound 6975 is incubated along with the virus at a concentration of 100 micromolar. A set of cells is incubated with virus but no gene transfer activating compound. Forty-eight hours later, the cells are assayed for luciferase by standard techniques. FIG. 3 presents the results of this assay in a graph.

[4] = tested on: HT29 cells; experiment: Adenoviral LacZ gene transfer to HT29 cells, comparison with EGTA (Example 4); format: cell-based, human; conditions: 100 micromolar compound vs 5 millimolar EGTA, MOI 10
Protocol: HT29 cells are grown in 96-well plates. The cells are seeded at near confluency, about 300,000 cells per well, and infected with adenovirus 3-4 days later. […] A replication deficient adenovirus encoding LacZ is applied at an MOI of 10 to wells of cells in low serum medium for 4 hours at 37° C. Compound 6975 is incubated along with the virus at a concentration of 100 micromolar. A second set of cells is incubated with virus but no gene transfer activating compound and a third set of cells is incubated with virus and 5 millimolar EGTA. Forty-eight hours later, the cells are assayed for […] by standard techniques.

[5] = tested on: PC-3 human prostate cell tumors; experiment: In vivo adenoviral gene transfer to prostate tumors, PNP activity (Example 5); parameters: species or system mice; conditions: 1 mM compound, 2-3×10^9 adenoviral particles per tumor, FIG. 5
Protocol: Prostate tumors are established in suitable hosts and PNP activity assayed in the presence or absence of adenovirus. Approximately 2-3×10^9 adenoviral particles are administered per tumor in the presence of 1 mM of compound 6975 or in the absence of the compound. Transgene activity is also assayed in livers. Further details of the method are described in (3).

Structure (SMILES)	Activity (gene transfer activator) [1]	activation of adenovirus gene transfer ([2]; 10 micromolar compound)	activation of adenovirus gene transfer ([2]; 100 micromolar compound)	other results
[H]/N=C(\N)N/N=C(\C)c1ccccn1 [Compound 6883]	+			
[H]/N=C(/N/N=C(\C)c1ccccn1)Nc1ccccc1 [Compound 6898]	+			
[H]/N=C(/N/N=C(\C)c1ccccn1)Nc1ccccc1 [Compound 6975]	+++	show activation of adenovirus gene transfer	show activation of adenovirus gene transfer	activating adenovirus-mediated gene transfer and expression in cells ([1]; FIG. 1): effective in activating adenovirus-mediated gene transfer and expression in cells; adenoviral gene transfer of luciferase to IB3 cells [3]: activates adenoviral gene transfer of luciferase; adenovirus gene transfer efficiency compared with EGTA [4]: activates adenovirus gene transfer more efficiently than EGTA; in vivo adenoviral gene transfer to tumors [5]: activates in vivo adenoviral gene transfer to PC-3 human prostate cell tumors in mice
C/C(=N/N=C(/N)NO)c1ccccn1 [Compound 7036]	++			
C/C(=N/NC(=N)NCc1ccccn1)c1ccccn1 [Compound 7064]	+			
[H]/N=c1/ncn([C@@H]2O[C@H](CO)[C@@H](O)[C@H]2O)c2[nH]cnc12 [Compound 8496]	+++	show activation of adenovirus gene transfer	show activation of adenovirus gene transfer	adenoviral gene transfer of LacZ to HT29 cells ([2]; FIG. 6): activates adenoviral gene transfer of LacZ to HT29 cells
